Values quoted from earlier work, collected in article PMC9516332 (Frontiers in Oncology, 2022).
Like-named read-outs stand apart in the source and are kept apart here.

Key:
[1] = target: panel of 255 wild-type kinases (Homo sapiens, UniProt O94804); conditions: kinase LOK, 1 µmol/L single concentration, cited from earlier work
[2] = target: panel of 255 wild-type kinases (Homo sapiens, UniProt P07332); conditions: kinase FES, 1 µmol/L single concentration, cited from earlier work
[3] = target: panel of 255 wild-type kinases (Homo sapiens, UniProt P07947); conditions: kinase YES, 1 µmol/L single concentration, cited from earlier work
[4] = target: panel of 255 wild-type kinases (Homo sapiens, UniProt P22607); conditions: kinase FGFR3, 1 µmol/L single concentration, cited from earlier work
[5] = target: panel of 255 wild-type kinases (Homo sapiens, UniProt P31749); conditions: AKT1 kinase assay, 1 µmol/L single concentration, cited from earlier work
[6] = target: panel of 255 wild-type kinases (Homo sapiens, UniProt P41240); conditions: kinase CSK, 1 µmol/L single concentration, cited from earlier work
[7] = target: panel of 255 wild-type kinases (Homo sapiens, UniProt P43405); conditions: kinase SYK, 1 µmol/L single concentration, cited from earlier work
[8] = target: panel of 255 wild-type kinases (Homo sapiens, UniProt P50750); conditions: CDK9/CycT1 kinase assay, 1 µmol/L single concentration, cited from earlier work
[9] = target: panel of 255 wild-type kinases (Homo sapiens, UniProt P54646); conditions: AMPKα2/β1/γ1 kinase assay, 1 µmol/L single concentration, cited from earlier work
[10] = target: panel of 255 wild-type kinases (Homo sapiens, UniProt Q00534); conditions: CDK6/CycD3 kinase assay, 1 µmol/L single concentration, cited from earlier work
[11] = target: panel of 255 wild-type kinases (Homo sapiens, UniProt Q04912); conditions: kinase RON, 1 µmol/L single concentration, cited from earlier work
[12] = target: T1, panel of 255 wild-type kinases (Homo sapiens, UniProt Q13976); conditions: kinase PGK, 1 µmol/L single concentration, cited from earlier work
T1 sequence (Q13976 1-671): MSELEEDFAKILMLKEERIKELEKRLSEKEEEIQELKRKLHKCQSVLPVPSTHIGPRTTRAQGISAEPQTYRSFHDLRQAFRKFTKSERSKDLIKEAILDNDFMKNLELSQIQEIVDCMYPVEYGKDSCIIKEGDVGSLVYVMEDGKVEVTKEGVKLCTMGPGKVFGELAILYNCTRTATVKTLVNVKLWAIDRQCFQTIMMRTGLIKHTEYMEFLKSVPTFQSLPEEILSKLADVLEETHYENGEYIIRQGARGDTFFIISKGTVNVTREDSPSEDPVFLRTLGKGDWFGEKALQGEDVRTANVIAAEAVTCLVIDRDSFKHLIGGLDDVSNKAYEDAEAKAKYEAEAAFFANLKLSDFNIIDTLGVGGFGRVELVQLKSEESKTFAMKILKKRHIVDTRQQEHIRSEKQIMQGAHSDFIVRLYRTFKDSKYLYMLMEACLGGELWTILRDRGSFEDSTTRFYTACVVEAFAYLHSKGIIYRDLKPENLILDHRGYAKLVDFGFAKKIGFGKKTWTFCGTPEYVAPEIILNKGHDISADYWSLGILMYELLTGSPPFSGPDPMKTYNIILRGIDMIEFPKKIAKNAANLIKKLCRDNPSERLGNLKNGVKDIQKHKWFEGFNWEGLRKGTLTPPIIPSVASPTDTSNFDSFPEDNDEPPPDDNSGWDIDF

[13] = target: panel of 255 wild-type kinases (Homo sapiens, UniProt Q16512); conditions: kinase PKN1, 1 µmol/L single concentration, cited from earlier work
[14] = target: T2, panel of 255 wild-type kinases (Homo sapiens, UniProt Q9HBY8); conditions: kinase SGK2, 1 µmol/L single concentration, cited from earlier work
T2 sequence (Q9HBY8 1-367): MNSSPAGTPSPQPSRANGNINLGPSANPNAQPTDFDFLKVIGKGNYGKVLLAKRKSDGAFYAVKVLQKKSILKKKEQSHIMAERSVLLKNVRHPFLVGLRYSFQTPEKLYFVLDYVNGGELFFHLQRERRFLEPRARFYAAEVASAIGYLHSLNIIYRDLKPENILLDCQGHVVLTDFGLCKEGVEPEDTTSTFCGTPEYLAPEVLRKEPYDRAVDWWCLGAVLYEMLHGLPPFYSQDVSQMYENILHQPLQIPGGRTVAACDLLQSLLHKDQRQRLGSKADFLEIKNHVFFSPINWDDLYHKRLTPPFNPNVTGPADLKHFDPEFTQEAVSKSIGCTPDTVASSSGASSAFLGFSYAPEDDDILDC

[15] = target: panel of 255 wild-type kinases (Homo sapiens, UniProt Q9HCP0); conditions: kinase CK1γ1, 1 µmol/L single concentration, cited from earlier work
[16] = target: panel of 255 wild-type kinases (Homo sapiens, UniProt Q9P0L2); conditions: MARK1, 1 µmol/L single concentration, cited from earlier work
[17] = ref DOI: 10.1158/1535-7163.MCT-18-0877
[18] = ref DOI: 10.1371/journal.pone.0092146

| SMILES | %-inhibition at 1 µmol/L, LOK [1, 17] [%] | %-inhibition at 1 µmol/L, FES [2, 17] [%] | %-inhibition at 1 µmol/L, YES [3, 17] [%] | %-inhibition at 1 µmol/L, FGFR3 [4, 17] [%] | %-inhibition AKT1 [5, 17] [%] | %-inhibition at 1 µmol/L, CSK [6, 17] [%] | %-inhibition at 1 µmol/L, SYK [7, 17] [%] | %-inhibition CDK9/CycT1 [8, 17] [%] | %-inhibition AMPKα2/β1/γ1 [9, 17] [%] | %-inhibition CDK6/CycD3 [10, 17] [%] | %-inhibition at 1 µmol/L, RON [11, 17] [%] | %-inhibition at 1 µmol/L, PGK [12, 17] [%] | %-inhibition at 1 µmol/L, PKN1 [13, 17] [%] | %-inhibition at 1 µmol/L, SGK2 [14, 17] [%] | %-inhibition at 1 µmol/L, CK1γ1 [15, 17] [%] | %-inhibition, MARK1 [16, 17] [%] | also measured |
| --- | --- | --- | --- | --- | --- | --- | --- | --- | --- | --- | --- | --- | --- | --- | --- | --- | --- |
| O=C(c1ccc(F)c(F)c1Nc1ccc(I)cc1F)N1CC(O)([C@@H]2CCCCN2)C1 [cobimetinib] | 10 | 1.67 | -0.706 | 5 | -7 | 5.62 | -23 | 1.36 | 9 | 0.129 | -9 | 2.54 | 19 | 7 | 2.67 | -5 | – |
| CC(C)(C)c1nc(-c2cccc(NS(=O)(=O)c3c(F)cccc3F)c2F)c(-c2ccnc(N)n2)s1 [dabrafenib] | – | – | – | – | – | – | – | – | – | – | – | – | – | – | – | – | %-inhibition at 1 µmol/L, FES [2, 18]: 2.29%; %-inhibition at 1 µmol/L, FGFR3 [4, 18]: 4.27%; %-inhibition at 1 µmol/L, CSK [6, 18]: 98%; %-inhibition at 1 µmol/L, SYK [7, 18]: 37%; %-inhibition at 1 µmol/L, RON [11, 18]: 37%; %-inhibition at 1 µmol/L, PKN1 [13, 18]: -2.84%; %-inhibition at 1 µmol/L, SGK2 [14, 18]: -7.58%; %-inhibition, MARK1 [16, 18]: -15% |
| Cc1cc(Nc2ncc(Cl)c(Nc3ccccc3S(=O)(=O)C(C)C)n2)c(OC(C)C)cc1C1CCNCC1 [ceritinib] | 75 | 99 | 31 | 21 | -8 | 3 | 5 | 0.194 | 40 | 3.4 | 9 | 38 | 25 | -5.59 | 19 | 8.55 | – |
| CCc1cc2c(cc1N1CCC(N3CCOCC3)CC1)C(C)(C)c1[nH]c3cc(C#N)ccc3c1C2=O [alectinib] | – | 23 | 44 | 8 | 3.25 | 6 | -9 | -0.0188 | 6 | -0.448 | 10 | -1.53 | 13 | -5 | -0.412 | 8 | – |
| CO[C@@H]1[C@H](N(C)C(=O)c2ccccc2)C[C@H]2O[C@]1(C)n1c3ccccc3c3c4c(c5c6ccccc6n2c5c31)C(=O)NC4 [midostaurin] | 98 | 90 | 89 | – | – | 58 | 97 | 49 | 90 | 1.81 | 22 | 98 | – | -0.775 | -0.49 | – | – |
| C=CC(=O)N1CCC[C@@H](n2nc(-c3ccc(Oc4ccccc4)cc3)c3c(N)ncnc32)C1 [ibrutinib] | 24 | 0.681 | – | 82 | -9 | – | -20 | – | 10 | 4.32 | 7 | 1.89 | 9 | – | 3.68 | 2.46 | – |
| C[C@@H](Oc1cc(-c2cnn(C3CCNCC3)c2)cnc1N)c1c(Cl)ccc(F)c1Cl [crizotinib] | – | – | – | – | – | – | – | – | – | – | – | – | – | – | – | – | %-inhibition at 1 µmol/L, LOK [1, 18]: 98%; %-inhibition at 1 µmol/L, YES [3, 18]: 65%; %-inhibition at 1 µmol/L, FGFR3 [4, 18]: 43%; %-inhibition AKT1 [5, 18]: -7%; %-inhibition at 1 µmol/L, CSK [6, 18]: 9%; %-inhibition CDK9/CycT1 [8, 18]: 5%; %-inhibition AMPKα2/β1/γ1 [9, 18]: 27%; %-inhibition CDK6/CycD3 [10, 18]: 0.0624%; %-inhibition at 1 µmol/L, PGK [12, 18]: -2.6%; %-inhibition at 1 µmol/L, PKN1 [13, 18]: 23%; %-inhibition at 1 µmol/L, SGK2 [14, 18]: -2.31%; %-inhibition at 1 µmol/L, CK1γ1 [15, 18]: -3.52%; %-inhibition, MARK1 [16, 18]: 27% |
